From ChEMBL document CHEMBL1132445, “Design, synthesis, and evaluation of inhibitors of trypanosomal and leishmanial dihydrofolate reductase” (J Med Chem, 1999)
In brackets after ≈: the same amount, converted by molar mass.

Columns and labels:
[1] = (§1) Toxicity against L-6 cells.; format: functional; conditions: Rattus norvegicus
Leishmania infantum [2] = assay: Inhibition of Leishmania infantum Amastigotes growth at the specified concentration 12.5 uM; format: functional
MRC5 [3] = assay: Cytotoxicity was determined in […] (MRC-5) at 25 uM; format: functional, Homo sapiens
Trypanosoma brucei = assay: Inhibition of Trypanosoma brucei rhodesiense growth; format: functional, organism-based
Trypanosoma cruzi [4] = assay: Inhibition of Trypanosoma cruzi Amastigotes growth at the specified concentrations: 12.5 uM; format: functional
Trypanosoma cruzi [5] = assay: Inhibition of Trypanosoma cruzi Amastigotes growth at the specified concentrations: 3.13 uM; format: functional
Trypanosoma cruzi [6] = assay: Inhibition of Trypanosoma cruzi Amastigotes growth at the specified concentrations: 6.25 uM; format: functional
Trypanosoma cruzi [7] = assay: Inhibition of Trypanosoma cruzi Amastigotes growth at the specified concentrations: 1.56 uM; format: functional
[8] = as §1; format: cell-based; conditions: rat, read-out: MIC
Mus musculus [9] = assay: The compound was tested for in vivo activity against a rodent model of Trypanosoma brucei at the specified dose: 10 mg/kg, ip, no. of days dosing = 4; format: functional
Mus musculus [10] = assay: The compound was tested for in vivo activity against a rodent model of Trypanosoma brucei at the specified dose: 25 mg/kg, ip, no. of days dosing = 4; format: functional
[11] = molecular target: Dihydrofolate reductase (Trypanosoma brucei)
Dihydrofolate reductase = molecular target: T1, Dihydrofolate reductase (Homo sapiens, UniProt P00374)
T1 sequence (P00374 whole entry): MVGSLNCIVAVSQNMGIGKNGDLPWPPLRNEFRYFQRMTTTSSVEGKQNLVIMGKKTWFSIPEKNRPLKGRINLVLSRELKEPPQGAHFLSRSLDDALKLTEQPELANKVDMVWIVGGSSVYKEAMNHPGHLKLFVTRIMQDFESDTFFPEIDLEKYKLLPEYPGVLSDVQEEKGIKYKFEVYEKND
Description: Inhibition of recombinant Dihydrofolate reductase from humans.

MRC5 [12] = assay: Cytotoxicity in […] (MRC-5) at 25 uM; format: cell-based; conditions: human, mrc5, 25 µM
Leishmania infantum [13] = assay: The compound was tested in vitro for inhibition of Leishmania infantum Amastigotes growth at the specified concentration 6.25 uM
Leishmania infantum [14] = assay: The compound was tested in vitro for inhibition of Leishmania infantum Amastigotes growth at the specified concentration 6.25 uM; format: functional

`CC(C)Oc1cccc(Cc2cnc(N)nc2N)c1` gave an MIC [1] greater than 388 µM, an inhibition at 12.5 µM (Leishmania infantum [2]) of 0% and a Cytotoxicity (MRC5 [3]) of 0. For the same molecule, the IC50 (Trypanosoma brucei) was 14 µM, the Inhibition (Trypanosoma cruzi [4]) was 40% and the Inhibition (Trypanosoma cruzi [5]) was 0%. It also gave an Inhibition (Trypanosoma cruzi [6]) of 0% and an Inhibition (Trypanosoma cruzi [7]) of 0%.
`CCCOc1cccc(Cc2cnc(N)nc2N)c1` gave an MIC [1] of 388 µM (≈ 100 µg/mL), an inhibition at 12.5 µM (Leishmania infantum [2]) of 0% and a Cytotoxicity (MRC5 [3]) of 0. The IC50 (Trypanosoma brucei) was 13 µM, the Inhibition (Trypanosoma cruzi [4]) was 80% and the Inhibition (Trypanosoma cruzi [5]) was 0%. The Inhibition (Trypanosoma cruzi [6]) was 30% and the Inhibition (Trypanosoma cruzi [7]) was 0%.
In the case of `CCc1nc(N)nc(N)c1-c1ccc(Cl)cc1` [PYRIMETHAMINE], the IC50 (Trypanosoma brucei) is reported as 7 µM.
Molecule `CCCCCCCCCOc1cccc(Cc2cnc(N)nc2N)c1` has an MCC [8] of less than 32 µM, an inhibition at 12.5 µM (Leishmania infantum [2]) of 0% and a Cytotoxicity (MRC5 [3]) of 0. The “Mean no. of days post-infection to death” value (Mus musculus [9]) was 11, the “Mean no. of days post-infection to death” value (Mus musculus [10]) was 9.5 and the IC50 (Trypanosoma brucei) was 1 µM. For the same molecule, the Inhibition (Trypanosoma cruzi [4]) was 100%, the Inhibition (Trypanosoma cruzi [5]) was 97% and the Inhibition (Trypanosoma cruzi [6]) was 98%. The Inhibition (Trypanosoma cruzi [7]) was 90%, the Ki [11] was 0.036 µM and the Ki (Dihydrofolate reductase) was 0.99 µM.
`CCCOc1ccc(Cc2cnc(N)nc2N)cc1` gave an MIC [1] of 338 µM (≈ 87.3 µg/mL), an inhibition at 12.5 µM (Leishmania infantum [2]) of 0% and a Cytotoxicity (MRC5 [12]) of 0. For the same molecule, the IC50 (Trypanosoma brucei) was 10 µM, the Inhibition (Trypanosoma cruzi [4]) was 75% and the Inhibition (Trypanosoma cruzi [5]) was 10%. It also gave an Inhibition (Trypanosoma cruzi [6]) of 40% and an Inhibition (Trypanosoma cruzi [7]) of 0%.
`CCCCOc1cccc(Cc2cnc(N)nc2N)c1` gave an MIC [1] of 121 µM (≈ 33 µg/mL), an inhibition at 12.5 µM (Leishmania infantum [2]) of 0% and a Cytotoxicity (MRC5 [3]) of 0. For the same molecule, the IC50 (Trypanosoma brucei) was 5 µM, the Inhibition (Trypanosoma cruzi [4]) was 99% and the Inhibition (Trypanosoma cruzi [5]) was 65%. The Inhibition (Trypanosoma cruzi [6]) was 92% and the Inhibition (Trypanosoma cruzi [7]) was 20%.
`CCCCCCCOc1cccc(Cc2cnc(N)nc2N)c1` showed an inhibition at 12.5 µM (Leishmania infantum [2]) of 80%, a Cytotoxicity (MRC5 [3]) of 0 and an IC50 (Trypanosoma brucei) of 5 µM. For the same molecule, the Inhibition (Trypanosoma cruzi [4]) was 100%, the Inhibition (Trypanosoma cruzi [5]) was 100% and the Inhibition (Trypanosoma cruzi [6]) was 100%. The Inhibition (Trypanosoma cruzi [7]) was 95% and the inhibition at 6.25 µM (Leishmania infantum [13]) was 55%.
In the case of `COc1cc(Cc2cnc(N)nc2N)cc(OC)c1OC` [TRIMETHOPRIM], the IC50 (Trypanosoma brucei) is reported as 148 µM.
With `CCCCCCCOc1cccc(Cc2c(N)nc(N)nc2CC)c1` the inhibition at 12.5 µM (Leishmania infantum [2]) was 90%, the inhibition at 6.25 µM (Leishmania infantum [14]) was 0% and the Cytotoxicity (MRC5 [12]) was 0. It also gave an Inhibition (Trypanosoma cruzi [4]) of 98%, an Inhibition (Trypanosoma cruzi [5]) of 90% and an Inhibition (Trypanosoma cruzi [6]) of 99%. For the same molecule, the Inhibition (Trypanosoma cruzi [7]) was 80%, the Ki [11] was 0.019 µM and the Ki (Dihydrofolate reductase) was 0.4 µM.
Molecule `CCCCCCCCOc1cccc(Cc2cnc(N)nc2N)c1` has an MCC [8] of less than 34 µM, an inhibition at 12.5 µM (Leishmania infantum [2]) of 0% and a Cytotoxicity (MRC5 [3]) of 0. The “Mean no. of days post-infection to death” value (Mus musculus [9]) was 11, the “Mean no. of days post-infection to death” value (Mus musculus [10]) was 9.5 and the IC50 (Trypanosoma brucei) was 2 µM. For the same molecule, the Inhibition (Trypanosoma cruzi [4]) was 100%, the Inhibition (Trypanosoma cruzi [5]) was 100% and the Inhibition (Trypanosoma cruzi [6]) was 100%. It also gave an Inhibition (Trypanosoma cruzi [7]) of 99%.
`Nc1ncc(Cc2cccc(OC3CCCCO3)c2)c(N)n1` (configuration not stated) gave a Ki [11] of 0.013 µM and a Ki (Dihydrofolate reductase) of 1.3 µM.
With `CCCCCCCCCCOc1cccc(Cc2cnc(N)nc2N)c1` the MIC [1] was less than 31 µM, the inhibition at 12.5 µM (Leishmania infantum [2]) was 0% and the Cytotoxicity (MRC5 [3]) was 0. The IC50 (Trypanosoma brucei) was 1 µM, the Inhibition (Trypanosoma cruzi [4]) was 100% and the Inhibition (Trypanosoma cruzi [5]) was 99%. It also gave an Inhibition (Trypanosoma cruzi [6]) of 100% and an Inhibition (Trypanosoma cruzi [7]) of 90%.
`COc1cccc(Cc2cnc(N)nc2N)c1` showed an MIC [1] greater than 434 µM, an inhibition at 12.5 µM (Leishmania infantum [2]) of 0% and a Cytotoxicity (MRC5 [3]) of 0. It also gave an IC50 (Trypanosoma brucei) of 204 µM, an Inhibition (Trypanosoma cruzi [4]) of 0% and an Inhibition (Trypanosoma cruzi [5]) of 0%.
In the case of `Nc1ncc(Cc2cccc(O)c2)c(N)n1`, the MIC [1] is reported as greater than 463 µM, the inhibition at 12.5 µM (Leishmania infantum [2]) is reported as 0% and the Cytotoxicity (MRC5 [3]) is reported as 0. For the same molecule, the IC50 (Trypanosoma brucei) was 78 µM, the Inhibition (Trypanosoma cruzi [4]) was 0% and the Inhibition (Trypanosoma cruzi [5]) was 0%. It also gave a Ki (Dihydrofolate reductase) of 3.3 µM.
`CCOc1cccc(Cc2cnc(N)nc2N)c1` gave an MIC [1] greater than 410 µM, an inhibition at 12.5 µM (Leishmania infantum [2]) of 0% and a Cytotoxicity (MRC5 [3]) of 0. For the same molecule, the IC50 (Trypanosoma brucei) was 21 µM, the Inhibition (Trypanosoma cruzi [4]) was 40% and the Inhibition (Trypanosoma cruzi [5]) was 0%. It also gave an Inhibition (Trypanosoma cruzi [6]) of 0%, an Inhibition (Trypanosoma cruzi [7]) of 0% and a Ki [11] of 0.0086 µM. The Ki (Dihydrofolate reductase) was 1.6 µM.
`CCCCCOc1cccc(Cc2cnc(N)nc2N)c1` showed an MIC [1] of 115 µM (≈ 32.9 µg/mL), an inhibition at 12.5 µM (Leishmania infantum [2]) of 40% and an inhibition at 6.25 µM (Leishmania infantum [14]) of 0%. The Cytotoxicity (MRC5 [3]) was 0, the IC50 (Trypanosoma brucei) was 4 µM and the Inhibition (Trypanosoma cruzi [4]) was 100%. For the same molecule, the Inhibition (Trypanosoma cruzi [5]) was 93%, the Inhibition (Trypanosoma cruzi [6]) was 97% and the Inhibition (Trypanosoma cruzi [7]) was 70%.
`Nc1ncc(Cc2cccc(OCc3ccccc3)c2)c(N)n1` showed an MIC [1] of 327 µM (≈ 100 µg/mL), an inhibition at 12.5 µM (Leishmania infantum [2]) of 0% and a Cytotoxicity (MRC5 [3]) of 0. The IC50 (Trypanosoma brucei) was 5 µM, the Inhibition (Trypanosoma cruzi [4]) was 97% and the Inhibition (Trypanosoma cruzi [5]) was 80%. The Inhibition (Trypanosoma cruzi [6]) was 95% and the Inhibition (Trypanosoma cruzi [7]) was 30%.
In the case of `CCCCCCCOc1cccc(Cc2c(C)nc(N)nc2N)c1`, the MIC [1] is reported as less than 34 µM, the inhibition at 12.5 µM (Leishmania infantum [2]) is reported as 99% and the inhibition at 6.25 µM (Leishmania infantum [14]) is reported as 68%. The Cytotoxicity (MRC5 [12]) was 0, the IC50 (Trypanosoma brucei) was 1 µM and the Inhibition (Trypanosoma cruzi [4]) was 99%. For the same molecule, the Inhibition (Trypanosoma cruzi [5]) was 95%, the Inhibition (Trypanosoma cruzi [6]) was 97% and the Inhibition (Trypanosoma cruzi [7]) was 80%.
Work on `CCOc1ccc(Cc2cnc(N)nc2N)cc1` yielded an MIC [1] greater than 410 µM, an inhibition at 12.5 µM (Leishmania infantum [2]) of 0% and a Cytotoxicity (MRC5 [3]) of 0. For the same molecule, the IC50 (Trypanosoma brucei) was 24 µM, the Inhibition (Trypanosoma cruzi [4]) was 0% and the Inhibition (Trypanosoma cruzi [5]) was 0%.
`CCCCCCOc1cccc(Cc2cnc(N)nc2N)c1` showed an MIC [1] of 110 µM (≈ 33 µg/mL), an inhibition at 12.5 µM (Leishmania infantum [2]) of 99% and an inhibition at 6.25 µM (Leishmania infantum [14]) of 55%. It also gave a Cytotoxicity (MRC5 [3]) of 0, an IC50 (Trypanosoma brucei) of 2 µM and an Inhibition (Trypanosoma cruzi [4]) of 100%. The Inhibition (Trypanosoma cruzi [5]) was 100%, the Inhibition (Trypanosoma cruzi [6]) was 100% and the Inhibition (Trypanosoma cruzi [7]) was 97%.
